Data published in PMC4262670 (Macromolecular bioscience, 2014).

What was measured:
[1] = ref [8]; cited from earlier work
[2] = ref [13]–[15]; cited from earlier work
[3] = test system: A2780 and OVCAR-3 human ovarian cancer cell lines; assay: Single agent in vitro cytotoxicity, WST-8, result stated over both cell lines; type: cell-based; conditions: A2780 versus OVCAR-3, WST-8
[4] = cited from earlier work; for water solubility of free drugs: medium with 0.5 % (v/v) DMSO used to prevent precipitation, no reference given
[5] = test system: first recurrence of ovarian cancer; conditions: added to carboplatin and gemcitabine; ref [56]; cited from earlier work
[6] = test system: non-small cell lung carcinoma (NSCLC); conditions: ref [59]; cited from earlier work
[7] = clinical investigation; ref [31]; cited from earlier work

CC(=O)O[C@@]12CO[C@@H]1C[C@H](O)[C@@]1(C)C(=O)[C@H](O)C3=C(C)[C@@H](OC(=O)[C@H](O)[C@@H](NC(=O)OC(C)(C)C)c4ccccc4)C[C@@](O)([C@@H](OC(=O)c4ccccc4)[C@H]21)C3(C)C [DOC, docetaxel]
in vitro cytotoxicity compared to paclitaxel [1]: superior in vitro cytotoxicity | cross resistance with paclitaxel [2]: does not demonstrate complete cross resistance with paclitaxel | differences in susceptibility of cell lines [3]: did not indicate overall trends in differences in the susceptibility | water solubility of free drugs [4]: poor water solubility

C=CCNC1=C2C[C@@H](C)C[C@H](OC)[C@H](O)[C@@H](C)/C=C(\C)[C@H](OC(N)=O)[C@@H](OC)/C=C\C=C(/C)C(=O)NC(=CC1=O)C2=O [17-AAG, 17-(allylamino)-17-demethoxygeldanamycin]
water solubility, ref 32 ([4]; ref [32]): poorly water soluble

bevacizumab: anti-angiogenic monoclonal antibody against VEGF-A, added to carboplatin and gemcitabine
disease progression and overall survival [5]: greater reduction in risk of disease progression and an improvement in overall survival

CC(=O)O[C@H]1C(=O)[C@@]2(C)[C@H]([C@H](OC(=O)c3ccccc3)[C@]3(O)C[C@H](OC(=O)[C@H](O)[C@@H](NC(=O)c4ccccc4)c4ccccc4)C(C)=C1C3(C)C)[C@]1(OC(C)=O)CO[C@@H]1C[C@@H]2O [paclitaxel]
mean survival time [6]: 6.5 weeks

CO[C@H]1/C=C\C=C(/C)C(=O)NC2=CC(=O)C(NCCCCCCN)=C(C[C@@H](C)C[C@H](OC)[C@H](O)[C@@H](C)/C=C(\C)[C@@H]1OC(N)=O)C2=O [AHGDM, 17-(hexane-1,6-diamine)-17-demethoxygeldanamycin]
differences in susceptibility of cell lines [3]: did not indicate overall trends in differences in the susceptibility | water solubility of free drugs [4]: poor water solubility

COC1=C2C[C@@H](C)C[C@H](OC)[C@H](O)[C@@H](C)/C=C(\C)[C@H](OC(N)=O)[C@@H](OC)/C=C\C=C(/C)C(=O)NC(=CC1=O)C2=O [geldanamycin]
hepatotoxicity [7]: significant hepatotoxicity
